Laboratory results taken from patent US10787473B2, “PH responsive fluorescent compound, composition for detecting mitophagy using same, and method for detecting mitophagy within cells” (DOJINDO LABORATORIES, priority 2016, dated 2020).

What was measured:
[1] = test system: Parkin-non-expressed HeLa cells; experiment: Confocal laser microscopic detection of mitophagy, CCCP induction; type: cell-based; conditions: 100 nmol/L, 10 μM/L CCCP for 24 hours
[2] = Fluorescent intensity at various pH in buffer solution containing 50% DMSO; type: physicochemical
Method: The fluorescent intensities of Compound 9 at various pH were measured in buffer solution containing 50% DMSO. […] Such increase takes place at more acidic side than that of naphthyl imide-type pH-responsive fluorescent compound.

[3] = test system: Parkin-expressed HeLa cells; experiment: Flow cytometry (FCM) analysis of mitophagy, CCCP induction; type: cell-based; conditions: 100 nmol/L, 10 μM/L CCCP for 24 hours
Method: HeLa cells were seeded on a 24 well plate and incubated in a CO2 incubator at 37° C. overnight. Parkin plasmid was introduced using HilyMax (DOJINDO LABORATORIES) into the cells and the cells were further incubated overnight. The cultured cells were washed with a plasma-containing medium, to which Compound 9 diluted with Hanks' HEPES buffer (100 nmol/L) was added and incubated for 30 minutes. After washing with the plasma-containing medium, the cells were cultured in a cell culture medium containing 10 μM/L of CCCP for 24 hours. After washing with PBS, the cells were peeled off by trypsin and EDTA. The cells were collected by centrifuge, dispersed in 0.5 mL of HBSS and analyzed by FCM (BD FACS cant II).

[4] = pH-dependent excitation and fluorescence spectra in buffer solution containing 50% acetonitrile; type: physicochemical
Method: To investigate a pH-dependent fluorescent emission of Compound 9, excitation spectra (“Excitation” in FIG. 1) and fluorescence spectra (“Fluorescence” in FIG. 1) were measured at pH 4.0 and 7.4 in buffer solution containing 50% acetonitrile.

[5] = test system: Parkin-expressed HeLa cells; experiment: Confocal laser microscopic detection of mitophagy, CCCP induction; type: cell-based; conditions: 100 nmol/L, 10 μM/L CCCP for 24 hours, 1 μM Lyso Dye
Text: Methods for inducing mitophagy include, in addition to a bulk method such as described in Example 3 above, a selective method mediated with Parkin gene and PINK1 enzyme. The latter involves Parkinson disease and the relationship with a quality control of dysfunctional mitochondria (For example, see Derek Narendra, Atsushi Tanaka, Der-Fen Suen and Richard J. Youle, J. Cell Biol., 2008, 183, 795-803.). To examine the mitochondria-selective detection of autophagy, Parkin-expressed HeLa cells were prepared and the mitophagy was induced by adding Compound 9 and carbonyl cyanide m-chlorophenyl hydrazone (CCCP), a mitochondrial uncoupler and incubating.
HeLa cells were seeded on a μ-slide 8 well (Ibidi) and incubated in a CO2 incubator at 37° C. overnight. Parkin plasmid was introduced using HilyMax (DOJINDO LABORATORIES) into the cells and the cells were incubated overnight. The cultured cells were washed with a plasma-containing medium, to which Compound 9 diluted with Hanks' HEPES buffer (100 nmol/L) was added and incubated for 30 minutes. After washing with the plasma-containing medium, the cells were cultured in a cell culture medium containing 10 μM/L of CCCP for 24 hours. After the occurrence of mitophagy was monitored by the fluorescent microscope, the cultured cells were further incubated with 1 μM Lyso Dye at 37° C. for 30 minutes.

HeLa cells = experiment: Mitophagy detection test using HeLa cells (starvation induction), fluorescent microscope; type: cell-based; conditions: 100 nmol/L, 30 min, 1 μM Lyso Dye
Method: HeLa cells were seeded on a μ-slide 8 well (Ibidi) and incubated in a CO2 incubator at 37° C. overnight. Compound 9 diluted with Hanks' HEPES buffer (100 nmol/L) was added and incubated for 30 minutes. A starvation induction was carried out by washing cultured cells with Hanks' HEPES buffer twice follow by adding plasma-free Krebs' buffer containing 1 μM glucagon and 7.5 μM pepstatin A and incubating at 37° C. for appropriate period. Then, the cultured cells were observed by a fluorescent microscope. To confirm the uptake of Compound 9 in lysosomes, 1 μM Lyso Dye diluted with Hanks' HEPES buffer was added to the cultured cells and incubated at 37° C. for 30 minutes.

## O=C(CCN1C(=O)c2ccc3c4cccc5c(N6CCN(Cc7ccc(CCl)cc7)CC6)ccc(c6ccc(c2c36)C1=O)c54)NCC[P+](c1ccccc1)(c1ccccc1)c1ccccc1.[Br-] [Compound 9]
[1]
  fluorescence from compound: faint
[2]
  change of fluorescent intensity responding to pH: increases from a neutral region to an acidic region
[3]
  increase of fluorescent emission on induction of mitophagy using CCCP: 1.3 times
[4]; buffer solution containing 50% acetonitrile, pH 4.0 vs 7.4
  fluorescent intensity at pH 4.0 compared with pH 7.4: higher than that at pH 7.4
[4]; pH 4.0 vs pH 7.4, buffer solution containing 50% acetonitrile
  shift of maximum fluorescent wavelength to short-wavelength side: 30 nm
[4]; polar solvent, leads to decrease of fluorescent intensity
  self-aggregation behaviour: tends to form a self-aggregate in a polar solvent
[5]
  fluorescence from compound and co-staining with lysosome dye: is observed as well as the collateral stain with a lysosome dye (Lyso Dye) is observed
HeLa cells
  co-staining with Lyso Dye (uptake in lysosomes): collateral stain took place
